Experimental data taken from US20110214194A1 (priority 2005, published 2011).

Experiments:
peritoneal macrophages [1] = type: cell-based, mouse
type I IFN = type: cell-based, mouse; settings: Heedless macrophages, 100 ng/ml, 4 hours
IRF-3 = assay: Immunoblot analysis of IRF-3 activation in macrophages; type: cell-based, mouse; settings: heedless mutant cells, lipid A 100 ng/ml
peritoneal macrophages [2] = settings: Trif mutant macrophages; cited from earlier work
NF-κB, ERK1 and ERK2 = assay: Immunoblot analysis of IκB and ERK (p42/44) phosphorylation in macrophages; type: cell-based, mouse; settings: Heedless macrophages, lipid A 100 ng/ml

Substance | TNF production in response to the inducer: effect of the Heedless mutation (peritoneal macrophages [1]) | other results
MALP-2 | partial impairment of the response | 
Pam2CSK4 | partial impairment of the response | 
Pam3CSK4 | normal | 
lipid A |  | signaling via the MyD88-independent pathway (type I IFN production): effect of the Heedless mutation (type I IFN): prevented; formation of the IRF-3 phosphodimer (IRF-3): not detected; lipid A-induced TNF production (peritoneal macrophages [2]): rather severe impairment; activation of NF-κB and phosphorylation of ERK1 and ERK2 (NF-κB, ERK1 and ERK2): occurred normally
lipoteichoic acid | partial impairment of the response | 
poly IC | normal | 
